The values below come from patent US12187728B2 (Raze Therapeutics, Inc., priority 2015, dated 2025).

The IC50 is the concentration at which inhibition is half-maximal. Read a high IC50 as weaker potency.

The target in this test is T1, Human MTHFD2 (Homo sapiens, UniProt P13995).
T1 construct: residues 36-350 in Uniport ID P13995; His6 (N); made in house; host or cells: E. coli
T1 sequence (P13995 36-350): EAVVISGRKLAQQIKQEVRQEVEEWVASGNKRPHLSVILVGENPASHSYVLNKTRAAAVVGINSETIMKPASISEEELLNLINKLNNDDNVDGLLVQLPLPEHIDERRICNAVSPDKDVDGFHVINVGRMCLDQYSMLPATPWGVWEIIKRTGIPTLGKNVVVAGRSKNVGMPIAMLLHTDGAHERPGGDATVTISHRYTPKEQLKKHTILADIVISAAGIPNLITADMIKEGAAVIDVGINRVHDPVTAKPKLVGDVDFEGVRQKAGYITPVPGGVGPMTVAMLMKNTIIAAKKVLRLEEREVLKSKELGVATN
Briefly: MTHFD2 Activity Assay (dehydrogenase activity, diaphorase/resazurin coupled fluorescence). To be noted: inhibitory activity (IC50 and/or binding constant); 0.2 nM MTHFD2, 11 concentrations. The class given is biochemical. An outline of the steps:
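His6-tagged MTHFD2 (res. 36-350), E. coli-expressed, at 0.2 nM preincubated with compound 15 min in Hepes pH 8.0/MgCl2/KH2PO4 buffer; 70 μM CH2-THF, 1 mM NAD+ added with resazurin/diaphorase, 30 min, EDTA stop. Resorufin fluorescence (ex 525/em 598); IC50 from 11-point 4-parameter fit.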
For orientation: Resazurin is reduced to fluorescent resorufin, in cell work by metabolically active cells.
In the case of `Cn1c(=O)n(Cc2ccc(Cl)c(Cl)c2)c(=O)c2c1nc(NC1CCCC(C(=O)O)C1)n2CCC(=O)O` (stereo not shown) [Example 341, 3-(7-(2-carboxyethyl)-1-(3,4-dichlorobenzyl)-3-methyl-2,6-dioxo-2,3,6,7-tetrahydro-1H-purin-8-ylamino)cyclohexanecarboxylic acid], the IC50 lay in the range of 5000 to 10000 nM.

`Cc1cccc2[nH]c(Cn3c(=O)c4c(nc(NC5CCCC(C(=O)O)C5)n4C)n(C)c3=O)cc12` (stereo not shown) [Example 342, 3-(3,7-dimethyl-1-((4-methyl-1H-indol-2-yl)methyl)-2,6-dioxo-2,3,6,7-tetrahydro-1H-purin-8-ylamino)cyclohexanecarboxylic acid] yielded an IC50 of 10 to 1000 nM. Consider `Cn1c(Nc2cccnc2)nc2c1c(=O)n(Cc1cc3c(Cl)cccc3[nH]1)c(=O)n2C` [Example 343, 1-((4-chloro-1H-indol-2-yl)methyl)-3,7-dimethyl-8-(pyridin-3-ylamino)-1H-purine-2,6(3H,7H)-dione], for which the IC50 lay in the range of 10 to 1000 nM. As to `Cn1c(Nc2ccnc(C3CC(O)C3)c2)nc2c1c(=O)n(Cc1ccc(Cl)c(Cl)c1)c(=O)n2C` (stereo not shown) [Example 344, 1-(3,4-diclorobenzyl)-8-(2-(3-hydroxylcyclobutyl)pyridine-4-ylamino)-3,7-dimethyl-1-H-purine-2,6(3H,7H)-dione], the IC50 was in the range of 1000 to 5000 nM. Compound `Cn1c(Nc2ccc(CC(=O)O)cc2)nc2c1c(=O)n(Cc1cc3c(Cl)cccc3[nH]1)c(=O)n2C` [Example 345, 2-[4-[[1-[(4-chloro-1H-indol-2-yl)methyl]-3,7-dimethyl-2,6-dioxo-purin-8-yl]amino]phenyl]acetic acid] registered an IC50 of 10 to 1000 nM. For `Cn1c(Nc2cccc(C(=O)O)c2)nc2c1c(=O)n(Cc1cc3c(Cl)cccc3[nH]1)c(=O)n2C` [Example 346, 3-[[1-[(4-chloro-1H-indol-2-yl)methyl]-3,7-dimethyl-2,6-dioxo-purin-8-yl]amino]benzoic acid], the IC50 lay within 10 to 1000 nM. Compound `Cn1c(N[C@H]2CCC[C@H]2O)nc2c1c(=O)n(Cc1cc3c(Cl)cccc3[nH]1)c(=O)n2C` [Example 347, 1-((4-chloro-1H-indol-2-yl)methyl)-8-((1S,2R)-2-hydroxycyclopentylamino)-3,7-dimethyl-1H-purine-2,6(3H,7H)-dione] yielded an IC50 of 10 to 1000 nM. The same measure for `Cn1c(Nc2ccncc2)nc2c1c(=O)n(Cc1cc3c(Br)cccc3[nH]1)c(=O)n2C` [Example 348, 1-((4-bromo-1H-indol-2-yl)methyl)-3,7-dimethyl-8-(pyridin-4-ylamino)-1H-purine-2, 6(3H,7H)-dione]: 5000 to 10000 nM; for `Cn1c(Nc2ccncc2)nc2c1c(=O)n(Cc1ccc3ccccc3c1)c(=O)n2C` [Example 349, 3,7-dimethyl-1-(naphthalen-2-ylmethyl)-8-(pyridin-4-ylamino)-1H-purine-2,6(3H,7H)-dione]: 10 to 1000 nM; for `Cn1c(Nc2ccncc2)nc2c1c(=O)n(Cc1cc3c(C#N)cccc3[nH]1)c(=O)n2C` [Example 350, 2-((3,7-dimethyl-2,6-dioxo-8-(pyridin-4-ylamino)-2,3,6,7-tetrahydro-1H-purin-1-yl)methyl)-1H-indole-4-carbonitrile]: 5000 to 10000 nM.

In turn, `Cn1c(Nc2cccc(C3CCC(O)C3)n2)nc2c1c(=O)n(Cc1cc3c(Cl)cccc3[nH]1)c(=O)n2C` (stereo not shown) [Example 351, 1-((4-chloro-1H-indol-2-yl)methyl)-8-(6-(3-hydroxycyclopentyl)pyridin-2-ylamino)-3,7-dimethyl-1H-purine 2,6(3H,7H)-dione] yielded an IC50 of 10 to 1000 nM. As for `Cn1c(Nc2cccc(C3CC(O)C3)n2)nc2c1c(=O)n(Cc1ccc(Cl)c(Cl)c1)c(=O)n2C` (stereo not shown) [Example 352, 1-(3,4-diclorobenzyl)-8-(6-(3-hydroxycyclobutyl)pyridine-2-ylamino)-3,7-dimethyl-1H-purine-2,6(3H,7H)-dione], the IC50 lay in the range of 1000 to 5000 nM. Then `Cn1c(-n2c(N)nc3ccccc32)nc2c1c(=O)n(Cc1cc3c(Cl)cccc3[nH]1)c(=O)n2C` [Example 353, 8-(2-amino-1H-benzo[d]imidazol-1-yl)-1-((4-chloro-1H-indol-2-yl)methyl)-3,7-dimethyl-1H-purine-2,6(3H,7H)-dione], with 1000 to 5000 nM; and `Cn1c(Nc2cnccn2)nc2c1c(=O)n(Cc1cc3c(Cl)cccc3[nH]1)c(=O)n2C` [Example 354, 1-((4-chloro-1H-indol-2-yl)methyl)-3,7-dimethyl-8-(pyrazin-2-ylamino)-1H-purine-2,6(3H,7H)-dione], with 10 to 1000 nM. The compound `Cn1c(Nc2ccnc(CCC(=O)O)n2)nc2c1c(=O)n(Cc1cc3c(Cl)cccc3[nH]1)c(=O)n2C` [Example 355, 3-(4-(1-((4-chloro-1H-indol-2-yl)methyl)-3,7-dimethyl-2,6-dioxo-2,3,6,7-tetrahydro-1H-purin-8-ylamino)pyrimidin-2-yl)propanoic acid] displayed an IC50 of 10 to 1000 nM. With `Cn1c(Nc2ncc[nH]2)nc2c1c(=O)n(Cc1cc3c(Cl)cccc3[nH]1)c(=O)n2C` [Example 356, 1-[(4-chloro-1H-indol-2-yl)methyl]-8-(1H-imidazol-2-ylamino)-3,7-dimethyl-purine-2,6-dione], the IC50 is 10 to 1000 nM. The compound `Cn1c(CN)nc2c1c(=O)n(Cc1cc3c(Cl)cccc3[nH]1)c(=O)n2C` [Example 358, 8-(aminomethyl)-1-[(4-chloro-1H-indol-2-yl)methyl]-3,7-dimethyl-purine-2,6-dione] displayed an IC50 of 10 to 1000 nM. The same measure for `Cn1c(N[C@@H]2CCC[C@@H]2O)nc2c1c(=O)n(Cc1cc3c(Cl)cccc3[nH]1)c(=O)n2C` [Example 359]: 10 to 1000 nM; for `Cn1c(NCC(N)=O)nc2c1c(=O)n(Cc1cc3c(Cl)cccc3[nH]1)c(=O)n2C` [Example 360, 2-(1-((4-chloro-1H-indol-2-yl)methyl)-3,7-dimethyl-2,6-dioxo-2,3,6,7-tetrahydro-1H-purin-8-ylamino)acetamide]: 10 to 1000 nM. The same measure for `CCn1c(=O)n(Cc2cc3c(Cl)cccc3[nH]2)c(=O)c2c1nc(Nc1ccncc1)n2C` [Example 361, 1-((4-chloro-1H-indol-2-yl)methyl)-3-ethyl-7-methyl-8-(pyridin-4-ylamino)-1H-purine-2,6(3H,7H)-dione]: 10 to 1000 nM. Turning to `Cn1c(Nc2ccncn2)nc2c1c(=O)n(Cc1cc3c(Cl)cccc3[nH]1)c(=O)n2C` [Example 362, 1-((4-chloro-1H-indol-2-yl)methyl)-3,7-dimethyl-8-(pyrimidin-4-ylamino)-3,7-dihydro-1H-purine-2,6-dione], the IC50 lay in the range of 10 to 1000 nM.

Consider `Cc1cccc2cc(Cn3c(=O)c4c(nc(Nc5ccncc5)n4C)n(C)c3=O)[nH]c12` [Example 365, 3,7-dimethyl-1-[(7-methyl-1H-indol-2-yl)methyl]-8-(4-pyridylamino)purine-2,6-dione], for which the IC50 was in the range of 10 to 1000 nM. Consider `Cn1c(Nc2ccncc2)nc2c1c(=O)n(Cc1cc3cccc(F)c3[nH]1)c(=O)n2C` [Example 366, 1-[(7-fluoro-1H-indol-2-yl)methyl]-3,7-dimethyl-8-(4-pyridylamino)purine-2,6-dione], for which the IC50 is 10 to 1000 nM.

As for `Cn1c(Nc2ccc(S(C)(=O)=O)cc2)nc2c1c(=O)n(Cc1cc3c(Cl)cccc3[nH]1)c(=O)n2C` [Example 367, 1-[(4-chloro-1H-indol-2-yl)methyl]-3,7-dimethyl-8-(4-methylsulfonylanilino)purine-2,6-dione], the IC50 lay in the range of 10 to 1000 nM.

`Cn1c(=O)n(Cc2ccc(Cl)c(Cl)c2)c(=O)c2c1nc(NC1CCCC(C(=O)O)C1)n2CCN` (stereo not shown) [Example 369, 3-(7-(2-aminoethyl)-1-(3,4-dichlorobenzyl)-3-methyl-2,6-dioxo-2,3,6,7-tetrahydro-1H-purin-8-ylamino)cyclohexanecarboxylic acid] returned an IC50 of 10 to 1000 nM. As to `COc1cccc2[nH]c(Cn3c(=O)c4c(nc(Nc5ccncc5)n4C)n(C)c3=O)cc12` [Example 370, 1-((4-methoxy-1H-indol-2-yl)methyl)-3,7-dimethyl-8-(pyridin-4-ylamino)-1H-purine-2,6(3H,7H)-dione], the IC50 fell in the range of 10 to 1000 nM.

The compound `Cn1c(N2CCCC(N)C2)nc2c1c(=O)n(Cc1cc3c(Cl)cccc3[nH]1)c(=O)n2C` (stereo not shown) [Example 371, 8-(3-aminopiperidin-1-yl)-1-((4-chloro-1H-indol-2-yl)methyl)-3,7-dimethyl-1H-purine-2,6(3H,7H)-dione] registered an IC50 of 10 to 1000 nM. For the compound `Cn1c(Nc2ccncc2)nc2c1c(=O)n(Cc1cc3cccc(Cl)c3[nH]1)c(=O)n2C` [Example 373, 1-[(7-chloro-1H-indol-2-yl)methyl]-3,7-dimethyl-8-(4-pyridylamino)purine-2,6-dione], the IC50 fell in the range of 10 to 1000 nM. `Cn1c(Nc2ccncc2)nc2c1c(=O)n(Cc1cc3c(-c4ccccc4)cccc3[nH]1)c(=O)n2C` [Example 374, 3,7-dimethyl-1-((4-phenyl-1H-indol-2-yl)methyl)-8-(pyridin-4-ylamino)-1H-purine-2,6(3H,7H)-dione] displayed an IC50 of over 10000 nM. `Cn1c(Nc2ccncc2)nc2c1c(=O)n(Cc1ccc3ccccc3c1Cl)c(=O)n2C` [Example 375, 1-((1-chloronaphthalen-2-yl)methyl)-3,7-dimethyl-8-(pyridin-4-ylamino)-1H-purine-2,6(3H,7H)-dione] yielded an IC50 of 10 to 1000 nM. `Cn1c(N2CCC(N)C2)nc2c1c(=O)n(Cc1cc3c(Cl)cccc3[nH]1)c(=O)n2C` (stereo not shown) [Example 376] gave an IC50 of 10 to 1000 nM.
